Results on five compounds are retold here after ChEMBL document CHEMBL1158271, “Lupane derivatives from Lophopetalum wallichii with farnesyl protein transferase inhibitory activity” (J Nat Prod, 1996).

Assay [1] can be described thus: Inhibition of recombinant protein farnesyltransferase-mediated [3H]FPP transfer after 30 mins by scintillation counting.
A further assay relates to Col2. Briefly: Cytotoxicity against human Col2 cells. It is filed as functional, cell-based.
In another assay the test system is ZR-75-1. Description: Cytotoxicity against human ZR-75-1 cells. Format: functional, cell-based.
A further assay concerns A-431. Description: Cytotoxicity against human A431 cells. It is filed as functional, cell-based.
The next assay relates to SK-MEL-2. Briefly: Cytotoxicity against human SK-MEL-2 cells. Format: functional, cell-based.
The test system of the next assay is LNCaP. Briefly: Cytotoxicity against human LNCAP cells. Format: functional, cell-based.
In another assay the test system is HT. Briefly: Cytotoxicity against human HT cells. Format: functional, cell-based.
Assay [2] in a line: Cytotoxicity against human BC1 cells. It is filed as functional, cell-based.
Another assay deals with KB. Description: Cytotoxicity against human KB cells. Format: functional, cell-based.
Another assay deals with Lu1. Description: Cytotoxicity against human Lu1 cells. It is filed as functional, cell-based.
Assay [3] can be described thus: Cytotoxicity against human U373 cells. It is filed as functional, cell-based, U-373MG ATCC. Particulars: U373 MG.
Assay [4] can be described thus: Cytotoxicity against human KBVIN cells. It is filed as functional, cell-based.

Converted amounts (≈) assume the structure as drawn.

As a reminder, the IC50 is the concentration that gives 50% inhibition. As for `CC1(C)C(=O)CC[C@]2(C)[C@H]3CC[C@@H]4[C@H]5[C@H]6[C@@H](C[C@]5(C)CC[C@@]4(C)[C@]3(C)CC[C@@H]12)OC(=O)[C@]61CO1` [20-EPI-OCHRACEOLIDE B], in assay [1], the IC50 was > 100 µg/mL.

Turning to `C=C(C)[C@@H]1CC[C@]2(CO)CC[C@]3(C)[C@H](CC[C@@H]4[C@@]5(C)CC[C@H](O)C(C)(C)[C@@H]5CC[C@]43C)[C@@H]12` [BETULIN], the IC50 in assay [1] is 1 µg/mL.

For orientation: EC50 means the concentration giving half of the maximal effect. Turning to `C=C1C(=O)O[C@@H]2C[C@]3(C)CC[C@]4(C)[C@H](CC[C@@H]5[C@@]6(C)CC[C@H](O)C(C)(C)[C@@H]6CC[C@]54C)[C@H]3[C@H]12` [DIHYDRO OCHRACEOLIDE A], the EC50 was 12.1 µg/mL (≈ 26.6 µM) in the assay with Col2; 3 µg/mL (≈ 6.6 µM) in the assay on ZR-75-1; 6.8 µg/mL (≈ 15 µM) in the assay on A-431; > 20 µg/mL with SK-MEL-2; 14.5 µg/mL (≈ 31.9 µM) in the assay on LNCaP; 9.6 µg/mL (≈ 21.1 µM) with HT. The EC50 in [2] is 10.2 µg/mL (≈ 22.4 µM); in the assay with KB it was > 20 µg/mL; with Lu1, 8.9 µg/mL (≈ 19.6 µM); in assay [3], 9.1 µg/mL (≈ 20 µM); in assay [4], > 20 µg/mL. Further, the IC50 in assay [1] is > 100 µg/mL.

Take `C=C(C)[C@@H]1CC[C@]2(C)CC[C@]3(C)[C@H](CC[C@@H]4[C@@]5(C)CC[C@H](O)C(C)(C)[C@@H]5CC[C@]43C)[C@@H]12` [LUPEOL]: the IC50 in [1] came to 65 µg/mL.

With `C=C1C(=O)O[C@@H]2C[C@]3(C)CC[C@]4(C)[C@H](CC[C@@H]5[C@@]6(C)CCC(=O)C(C)(C)[C@@H]6CC[C@]54C)[C@H]3[C@H]12` [OCHRACEOLIDE A], the EC50 with Col2 is > 20 µg/mL; with ZR-75-1, 4.5 µg/mL (≈ 9.94 µM); with A-431 it was > 20 µg/mL; in the assay with SK-MEL-2, > 20 µg/mL; with LNCaP, 13.4 µg/mL (≈ 29.6 µM); with HT, 8.6 µg/mL (≈ 19 µM). The EC50 in assay [2] was 7.9 µg/mL (≈ 17.5 µM); in the assay on KB it was > 20 µg/mL; in the assay with Lu1, 16.1 µg/mL (≈ 35.6 µM); in assay [3], 6.7 µg/mL (≈ 14.8 µM); in assay [4], 17.2 µg/mL (≈ 38 µM). Besides, the IC50 in [1] is > 100 µg/mL.
